According to patent US20240165129A1, “METHODS OF TREATING PAIN AND DEPRESSION” (priority 2022, published 2024):
Where a chain is given by its changes, count along the chain named. Entries after “also recorded” stand apart in the source; their conditions may differ. Where two headings read alike, the source gives them in different places.

What was measured:
mice brain after MCAO = settings: mouse, in vivo
[1] = target: T1, homomeric ASIC1a channels (Homo sapiens, UniProt P78348); type: cell-based
T1 construct: expressed in transfected cells
T1 sequence (P78348 1-528): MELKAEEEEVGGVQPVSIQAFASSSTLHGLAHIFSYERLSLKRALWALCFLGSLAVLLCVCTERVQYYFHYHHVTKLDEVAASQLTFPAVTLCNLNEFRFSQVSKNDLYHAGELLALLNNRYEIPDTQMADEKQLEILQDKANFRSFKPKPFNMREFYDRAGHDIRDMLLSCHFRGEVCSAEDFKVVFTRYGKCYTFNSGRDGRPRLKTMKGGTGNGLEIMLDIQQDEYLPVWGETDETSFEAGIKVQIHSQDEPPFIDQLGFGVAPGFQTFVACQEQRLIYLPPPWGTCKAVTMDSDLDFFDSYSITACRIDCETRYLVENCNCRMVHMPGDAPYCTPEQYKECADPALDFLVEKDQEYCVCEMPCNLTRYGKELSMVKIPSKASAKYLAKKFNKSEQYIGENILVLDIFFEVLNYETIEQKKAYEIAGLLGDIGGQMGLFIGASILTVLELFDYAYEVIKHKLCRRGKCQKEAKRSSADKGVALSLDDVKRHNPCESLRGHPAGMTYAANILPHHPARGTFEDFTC

[2] = system: corticosterone-induced depression-like behaviors in mice; test: Mouse model of depression induced by repeated corticosterone injections; type: in vivo; settings: 12 mg/kg i.p. daily, corticosterone 40 mg/kg i.p. for 21 days
Protocol: Based on the fact that Triol inhibits ASIC1a, Triol can have anti-depression activity. […] A mouse model of depression induced by repeated corticosterone injections is used. Depression-like behaviors are induced by repeated administration of corticosterone (40 mg/kg, i.p.), once a day for 21 days in mice. Mice arerandomly assigned to 4 experimental groups (n=10/group). Control, corticosterone, corticosterone +Vehicle (20% HP-β-CD) and corticosterone+ Triol (12 mg/kg, i.p.). Triol is administered daily. The sucrose consumption test, open-field test (OFT), tail suspension test (TST), and forced swimming test (FST) are used to evaluate the therapeutic effect of Triol.

[3] = target: T2, heteromeric ASIC1a/2a channels (Mus musculus, UniProt Q6NXK8+Q925H0); test: ASIC currents in cortical neurons in the presence of PcTx1 (heteromeric channels); settings: Triol 10 μM
T2 sequence (Q6NXK8 1-526): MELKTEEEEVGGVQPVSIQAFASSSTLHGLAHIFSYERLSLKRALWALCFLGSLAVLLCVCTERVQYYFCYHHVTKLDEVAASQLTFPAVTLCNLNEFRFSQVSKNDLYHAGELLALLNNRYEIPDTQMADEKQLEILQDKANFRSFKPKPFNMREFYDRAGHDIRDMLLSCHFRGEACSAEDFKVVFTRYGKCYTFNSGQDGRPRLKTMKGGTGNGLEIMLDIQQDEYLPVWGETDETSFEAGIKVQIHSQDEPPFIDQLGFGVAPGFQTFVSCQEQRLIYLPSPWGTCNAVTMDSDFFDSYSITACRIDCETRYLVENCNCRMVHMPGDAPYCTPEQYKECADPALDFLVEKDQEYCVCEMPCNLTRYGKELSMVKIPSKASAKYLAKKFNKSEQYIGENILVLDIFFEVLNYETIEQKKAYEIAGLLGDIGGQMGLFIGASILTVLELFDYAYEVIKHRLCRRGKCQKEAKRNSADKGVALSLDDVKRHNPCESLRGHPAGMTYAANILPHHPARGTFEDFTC
T2 sequence (Q925H0 1-512): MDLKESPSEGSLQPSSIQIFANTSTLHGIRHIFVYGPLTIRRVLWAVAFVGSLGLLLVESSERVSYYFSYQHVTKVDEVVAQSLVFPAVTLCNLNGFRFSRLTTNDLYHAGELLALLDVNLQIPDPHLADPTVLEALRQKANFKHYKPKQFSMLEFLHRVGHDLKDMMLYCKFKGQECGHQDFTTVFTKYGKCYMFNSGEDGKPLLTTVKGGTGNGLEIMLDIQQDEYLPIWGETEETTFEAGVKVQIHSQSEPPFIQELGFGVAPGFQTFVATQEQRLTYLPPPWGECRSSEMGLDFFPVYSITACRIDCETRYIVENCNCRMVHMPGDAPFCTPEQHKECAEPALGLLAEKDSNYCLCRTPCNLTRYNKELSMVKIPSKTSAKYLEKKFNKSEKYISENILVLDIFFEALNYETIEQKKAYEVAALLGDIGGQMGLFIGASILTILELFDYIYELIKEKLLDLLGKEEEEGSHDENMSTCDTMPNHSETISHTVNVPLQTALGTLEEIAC
Protocol: Mouse cortical neurons were cultured. Pregnant Swiss mice were purchased from Charles River. The use of mice for neuronal cultures was approved by the Institutional Animal Care and Use Committee of Morehouse School of Medicine. Briefly, the brains of fetuses (embryonic day 16) were removed quickly from anesthetized pregnant mice and placed in cold Ca2+/Mg2+-free PBS. Cerebral cortices were dissected and incubated with 0.05% trypsin-EDTA for 10 min at 37° C., followed by trituration. Cells were plated in poly-L-ornithine-coated culture dishes. Cells were initially cultured in minimal essential medium (MEM) with 10% fetal bovine serum (FBS), 10% horse serum, and 25 mM glucose and maintained at 37° C. in a humidified 5% CO2 atmosphere incubator for 24 h. After that, the culture medium was completely replaced by Neurobasal medium supplemented with B-27 (Invitrogen) and then changed twice a week. Neurons were used for the experiments between days 10 and 14.
ASIC currents were recorded using patch-clamp techniques. Pipette solution contained (mM): 140 CsF, 1 CaCl2, 2 MgCl2, 11 EGTA, 2 tetraethylammonium chloride, 10 HEPES and 4 MgATP, pH 7.3 adjusted with CsOH, 290-300 mOsm. […] Currents were recorded with Axopatch 200B amplifier, filtered at 2 kHz, and digitized at 5 kHz using Digidata 1332A. […]

homomeric ASIC2a = target: T3, homomeric ASIC2a (Rattus norvegicus, UniProt Q62962); test: Patch-clamp recording of ASIC2a currents in CHO cells with transient expression; settings: 10 μM, pH drop 7.4 to 4.5, n=4-5
T3 sequence (Q62962 1-512): T2 sequence (Q925H0 1-512) with I444L
Protocol: Chinese hamster ovary (CHO) cells were cultured in F12-K medium (Invitrogen) plus 10% fetal bovine serum, 50 units/nal penicillin, and 50 μg/m1 streptomycin. At ˜50% confluence, CHO cells were co-transfected with cDNAs for rat ASIC1β, ASIC2a, or ASIC3, and that for GFP. GFP-positive cells were used for electrophysiological recordings 24-72 h after transient transfection.
ASIC currents were recorded using patch-clamp techniques. Pipette solution contained (mM): 140 CsF, 1 CaCl2, 2 MgCl2, 11 EGTA, 2 tetraethylammonium chloride, 10 HEPES and 4 MgATP, pH 7.3 adjusted with CsOH, 290-300 mOsm. Extracellular Fluid (ECF) contained (mM): 140 NaCl, 5.4 KCl, 2 CaCl2, 1 MgCl2, 10 glucose, and 10 HEPES (320-330 mOsm). A multi-barrel perfusion system (SF-77 Warner Instruments, Hamden, CT) was used to obtain a rapid exchange of ECFs. Currents were recorded with Axopatch 200B amplifier, filtered at 2 kHz, and digitized at 5 kHz using Digidata 1332A. ASIC currents were induced by rapid perfusion of the cells with acidic ECF for 4 seconds. Unless otherwise stated, cells were clamped at a holding potential of −60 mV. […] Data were excluded for statistical analysis when access resistance was >10 MΩ or leak current was >100 pA.
Therefore, the study used pH 6.0 and 4.5 to activate ASIC1β and ASIC2a currents, respectively. […]

**Q.** With CC(C)CCC[C@@H](C)[C@H]1CC[C@H]2[C@@H]3C[C@@H](O)[C@@]4(O)C[C@@H](O)CC[C@]4(C)[C@H]3CC[C@]12C [Triol, cholestane-3β, 5α, 6β-triol] as the compound, how does the “infarct volume, Triol in the presence of PcTx-1” value (mice brain after MCAO) read?
**A.** no additional reduction

**Q.** What about the “protection against ischemic brain injury” value (mice brain after MCAO) of the same compound?
**A.** didn't show additional protection; also recorded: A similar result; also recorded: significant protection

**Q.** What about the inhibition at 1 µM ([1]; 1 μM Triol, within 5 minutes of application, pH drop 7.4 to 6.0, n=5, read-out: inhibition of ASIC1a currents) of the same compound?
**A.** ~20%

**Q.** What about the inhibition at 10 µM ([1]; 10 μM Triol, within 5 minutes of application, pH drop 7.4 to 6.0, n=5, read-out: inhibition of ASIC1a currents) of the same compound?
**A.** ~40%

**Q.** And the inhibition at 10 µM ([1]; 10 μM, once/one min, within 5 min of recording, read-out: inhibition of ASIC current, higher stimulatory frequency)?
**A.** ~40%

**Q.** What about the inhibition at 10 µM ([1]; 10 μM, once/two min, within 5 min of recording, read-out: inhibition of ASIC1a currents, lower stimulatory frequency) of the same compound?
**A.** ~20%

**Q.** And the “reversibility of ASIC1a inhibition” value ([1]; after 30 min washout (data not shown))?
**A.** irreversible

**Q.** And the “antidepressant activity (sucrose consumption, OFT, TST, FST)” value [2]?
**A.** alleviating corticosterone-induced depression-like behaviors

**Q.** And the “effect on remaining ASIC currents in the presence of PcTx1” value ([3]; PcTx1 40 nM, PcTx-1 sensitive neurons, n=9)?
**A.** further inhibited

**Q.** What about the “effect on PcTx1 insensitive ASIC currents” value ([3]; PcTx-1 insensitive neurons (3 of 12 cells)) of the same compound?
**A.** still inhibit these currents

**Q.** And the “effect on ASIC2a currents” value (homomeric ASIC2a)?
**A.** no significant effect
